Experimental data as given in ChEMBL document CHEMBL6071133, “Discovery of novel penetrating peptides able to target human leukemia and lymphoma for enhanced PROTAC delivery” (Eur J Med Chem, 2024).
Active and inactive are the calls of the source. The rule behind the calls is not given here. Square brackets hold non-standard residues; d marks the D form. Peptide text beside a SMILES is read from it. Bta = N[C@@H](Cc1csc2ccccc12)C(=O)O

Columns and labels:
[1] = Drug uptake in human THP-1 cells assessed as increase in fluorescence intensity at 10 umol/L incubated for 2 hrs by cell imaging based fluorescence microscopic analysis; type: ADME; settings: thp-1, 2 h, 10 µM, dose 10 µmol/L
[2] = Stability of the compound in fetal bovine serum assessed as parent compound remaining measured after 8 hrs by HPLC-MS analysis; type: ADME, cell-free, Bos taurus; settings: cattle, read-out: Stability
[3] = Stability of the compound in fetal bovine serum assessed as parent compound remaining measured after 12 hrs by HPLC-MS analysis; type: ADME, cell-free, Bos taurus; settings: cattle, read-out: Stability
[4] = Stability of the compound in fetal bovine serum assessed as parent compound remaining measured after 36 hrs by HPLC-MS analysis; type: ADME, cell-free, Bos taurus; settings: cattle, read-out: Stability
[5] = Cytotoxicity against human K562 cells assessed as cell viability at 0.01 to 100 uM incubated for 48 hrs by MTT assay; type: toxicity, cell-based; settings: dose 0.01-100 µM, read-out: Activity
[6] = Cytotoxicity against human KU812 cells assessed as cell viability at 0.01 to 100 uM incubated for 48 hrs by MTT assay; type: toxicity, cell-based; settings: dose 0.01-100 µM, read-out: Activity
[7] = Cytotoxicity against human CCRF-CEM cells assessed as cell viability at 0.01 to 100 uM incubated for 48 hrs by MTT assay; type: toxicity, cell-based; settings: dose 0.01-100 µM, read-out: Activity
[8] = Cytotoxicity against human THP-1 cells assessed as reduction in cell viability at higher concentrations incubated for 48 hrs by MTT assay; type: toxicity, cell-based; settings: read-out: INH
[9] = Increase in membrane permeability of IMA-PROTAC in human K562 cells assessed as potentiation of IMA-PROTAC-induced Bcr-Abl degradation at PROTAC to compound concentration ratio of 1:5 incubated for 48 hrs in presence of 3 umol/L IMA-PROTAC by western blot analysis (reference value: 40%); type: functional
[10] = test system: K562; assay: Increase in membrane permeability of IMA-PROTAC in human K562 cells assessed as potentiation of IMA-PROTAC-induced Bcr-Abl degradation at PROTAC to compound concentration ratio of 1:3 incubated for 48 hrs in presence of 3 umol/L IMA-PROTAC by western blot analysis; type: functional, cell-based
[11] = test system: K562; assay: Induction of apoptosis in human K562 cells assessed as viable cells at PROTAC to compound concentration ratio of 1:5 incubated for 48 hrs in presence of 3 umol/L IMA-PROTAC by AnnexinV-FITC/PI staining based flow cytometry (reference value: 99.85%); type: functional
[12] = test system: K562; assay: Induction of apoptosis in human K562 cells assessed as early apoptotic cells at PROTAC to compound concentration ratio of 1:5 incubated for 48 hrs in presence of 3 umol/L IMA-PROTAC by AnnexinV-FITC/PI staining based flow cytometry (reference value: 0.03%); type: functional
[13] = test system: K562; assay: Induction of apoptosis in human K562 cells assessed as late apoptotic cells at PROTAC to compound concentration ratio of 1:5 incubated for 48 hrs in presence of 3 umol/L IMA-PROTAC by AnnexinV-FITC/PI staining based flow cytometry (reference value: 0.01%); type: functional
[14] = test system: K562; assay: Induction of apoptosis in human K562 cells assessed as necrotic cells at PROTAC to compound concentration ratio of 1:5 incubated for 48 hrs in presence of 3 umol/L IMA-PROTAC by AnnexinV-FITC/PI staining based flow cytometry (reference value: 0.1%); type: functional
[15] = Interaction with IMA-PROTAC assessed as induction of formation of micelle cluster with uniform and distinct spherical morphology by transmission electron microscopy; type: physicochemical
[16] = Interaction with IMA-PROTAC assessed as induction of assembly formation by transmission electron microscopy; type: physicochemical
[17] = test system: K562; assay: Increase in membrane permeability of IMA-PROTAC in human K562 cells assessed as potentiation of IMA-PROTAC-induced inhibition of STAT5 phosphorylation at PROTAC to compound concentration ratio of 1:5 incubated for 48 hrs in presence of 3 umol/L IMA-PROTAC by western blot analysis; type: functional, cell-based
[18] = Drug uptake in human CCRF-CEM cells assessed as membrane penetration by measuring increase in fluorescence intensity at 5 umol/L incubated for 2 hrs by flow cytometry relative to C9C; type: ADME, cell-based; settings: 5 µM, dose 5 µmol/L
[19] = Drug uptake in human K562 cells assessed as membrane permeability at 5 umol/L incubated for 2 hrs by flow cytometry relative to C9C; type: ADME, cell-based; settings: k562, 2 h, 5 µM, dose 5 µmol/L
[20] = Drug uptake in human KU812 cells assessed as membrane permeability at 5 umol/L incubated for 2 hrs by flow cytometry relative to C9C; type: ADME, cell-based; settings: ku812, 2 h, 5 µM, dose 5 µmol/L

Which results are given for `CC(C)C[C@H](NC(=O)[C@H](Cc1c[nH]c2ccccc12)NC(=O)[C@H](Cc1ccc(O)cc1)NC(=O)[C@H](Cc1ccccc1)NC(=O)CNC(=O)[C@@H](N)CS)C(=O)N[C@@H](CCCNC(=N)N)C(=O)N[C@@H](CO)C(=O)N[C@@H](CS)C(=O)O` (H-CGFYWLRSC-OH)?
Drug uptake [1]: Active; remaining at 8 h [2]: 100%; remaining at 12 h [3]: 80%; remaining at 36 h [4]: 35%; viability at 48 h, up to 100 µM [5]: > 75%; viability at 48 h, up to 100 µM [6]: > 75%; viability at 48 h, up to 100 µM [7]: > 75%; cytotoxicity at 48 h [8]: ~50%; Activity [9]: 60%; Activity [10]: Active; Activity [11]: 86.18%; Activity [12]: 6.26%; Activity [13]: 7.46%; Activity [14]: 0.09%; Activity [15]: Not Active; Activity [16]: Not Active; Activity [17]: Active

For `CC(C)C[C@H](NC(=O)[C@H](Cc1csc2ccccc12)NC(=O)[C@H](Cc1ccc(O)cc1)NC(=O)[C@H](Cc1ccccc1)NC(=O)CNC(=O)[C@@H](N)CS)C(=O)N[C@@H](CCCNC(=N)N)C(=O)N[C@@H](CO)C(=O)N[C@@H](CS)C(=O)O` (H-CGFY[Bta]LRSC-OH), which “fold change (FC)” value [18] is on record?
The value was 4.78.

For `CC(C)C[C@H](NC(=O)[C@H](Cc1csc2ccccc12)NC(=O)[C@H](Cc1ccc(O)cc1)NC(=O)[C@H](Cc1ccccc1)NC(=O)[C@H](CCCNC(=N)N)NC(=O)[C@@H](N)CS)C(=O)N[C@@H](CCCNC(=N)N)C(=O)N[C@@H](CO)C(=O)N[C@@H](CS)C(=O)O` (H-CRFY[Bta]LRSC-OH), which Drug uptake [19] is on record?
Its Drug uptake is 65%.

What about the Drug uptake [20] of the same compound?
Its Drug uptake is 65%.

For `CC(C)C[C@@H]1NC(=O)[C@H](Cc2c[nH]c3ccccc23)NC(=O)[C@H](Cc2ccc(O)cc2)NC(=O)[C@H](Cc2ccccc2)NC(=O)CNC(=O)[C@H](CCCCN)NC(=O)[C@H](CC(=O)O)NC(=O)[C@H](CO)NC(=O)[C@H](CCCNC(=N)N)NC1=O` (cyclo(DKGFYWLRS)), which “fold change (FC)” value [18] is on record?
Its value is 3.1.
